Data on two compounds can be found in patent US20070160657A1, “Targeting and intestinal-absorption controlled liposome having sugar chain and therapeutic drug for cancer and diagnostic drug containing the liposome” (National Institute of Advanced Industrial Science, priority 2003, published 2007).

For data set [1], the system named is KG-1a cells. Put plainly: Cytotoxicity of doxorubicin HCl incorporated in liposome, WST-8, human leukemia cells. The format is cell-based. As to conditions: read-out: 50% growth inhibition concentration (IC50); KG-1a human leukemia cells, 72 hours. As for the experimental part:
(§1) KG-1a cells established from an acute myeloid leukemia patient were used as human leukemia cells. KG-1a cells were cultured in RPMI 1640 medium containing 10% fetal bovine serum (hereinafter FBS). MRC5 cells established from normal fibroblastic cells were used as normal human cells, and cultured in MEM medium containing 10% FBS. Cell suspensions were prepared from these cells at the concentration of 10^5 cells/ml and distributed to 96 well plates at 10^4 cells/well. After 24 hours, free doxorubicin HCl, which was not incorporated in liposome (hereinafter free Dox), doxorubicin HCl incorporated in liposome on which sugar was not bonded (hereinafter L-Dox) and doxorubicin HCl incorporated in liposome on which sialyl Lewis X tetrasaccharide was bonded (hereinafter L-Dox-SLX) were added to each well at appropriate concentrations. […] After removing the media containing the anticancer drug, replacing with 100 μl of RPMI 1640 or MEM containing 10% WST-8 and 10% FBS and incubating for 3 hours, the quantitation of cells were carried out by measuring absorbance at 485 nm (using the absorbance at 550 nm as a reference). Kiling activity (%)=100−(absorbance of the well of interest at 485 nm−absorbance of the same well at 550 nm)/(absorbance of the untreated well at 485 nm−absorbance of the untreated well at 550 nm)×100. […]

For data set [2], the system named is MRC5 cells. Put plainly: Cytotoxicity of doxorubicin HCl incorporated in liposome, WST-8, normal human cells. The format is cell-based. As to conditions: read-out: 50% growth inhibition concentration (IC50), 72 hours. As for the experimental part: as §1
The conditions of data set [3]: blood; tail vein; amount administered 1.4 mg/kg; mice with EAT cancer.
Experimental: Ehrlich ascites tumor (EAT) cells (about 2×10^7 cells) were implanted subcutaneously into the right femoral region in male ddY mice (7 weeks of age), and the 50 mice were used in this test after the tumor tissues grew to 50 to 100 cubic mm (after 6 to 8 days).
These mice with cancer were separated into two groups, 25 mice per each group, and the mice in each group were injected with a liposome solution encapsulating having glycolipid type sugar chain and doxorubicin or free doxorubicin solution at a dose of 0.2 ml in tail vein after the tumor implant. Then, at various time intervals, the doxorubicin concentration was measured by fluorescent method (470 nm) in blood and tumor tissue of 5 mice from each group.
Data set [4] concerns Collagen type II induced arthritis (CIA) model. Put plainly: Treatment of RA (CIA) mice by intravenous administration. The format is in vivo, DBA/1J mouse.
Data set [5] has the same test system. The experiment in a line: Treatment of RA (CIA) mice by oral administration. As to conditions: oral 3 times a week, Day 28 to 39; free Pred 100 μg (up to Day 32), liposomes 10 μg per administration. The format is in vivo, DBA/1J mouse.
The test system is the same in data set [6]. The experiment in a line: Determination of suitable dose of predonisolone phosphate in RA (CIA) mice, intravenous. The format is in vivo, DBA/1J mouse.

With `COc1cccc2c1C(=O)c1c(O)c3c(c(O)c1C2=O)C[C@@](O)(C(=O)CO)C[C@@H]3O[C@H]1C[C@H](N)[C@H](O)[C@H](C)O1.Cl` [free Dox, doxorubicin HCl], the IC50 in data set [1] amounted to 0.18 µM; in data set [2], 8.4 µM. In data set [3], the “AUC0→∞” value was found to be 130 ± 10 µg·h/mL.

As to `C[C@]12C=CC(=O)C=C1CC[C@@H]1[C@@H]2[C@@H](O)C[C@@]2(C)[C@H]1CC[C@]2(O)C(=O)COP(=O)(O)O` [free Pred, predonisolone phosphate], the “Inflammatory Activity (IA)” value in data set [4] (Day 37 and afterward, iv 100 μg per injection, twice a week) is on record as “about 50%”. For the same compound, the “Inflammatory Activity (IA), comparison between groups” value in data set [4] (iv twice a week, free Pred 100 μg, liposomes 10 μg per injection) is “no clear difference from the Control group in IA”; in data set [5], “no significant difference in IA”. The “Inflammatory Activity (IA) versus Control” value is “No significant difference” in data set [6] (iv 250 μg per injection, 500 μg per week); “no increase in IA was observed and the progression of inflammation was suppressed” in data set [6] (iv 500 μg per injection, 1000 μg per week). For the same compound, in data set [6] (iv, more than 500 up to 1000 μg/week), the “Dose required to suppress the progression of inflammation” value was > 500 μg/week.
